The target of test [1] is T1, NAMPT (Homo sapiens, UniProt P43490). In words: TR-FRET Binding Assay of NAMPT with PRPP. The conditions noted are these: 2 nM NAMPT, 2 nM probe, 200 µM PRPP and 2.5 mM ATP, equilibrated 16 hours. Put shortly:
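TR-FRET probe displacement with 2 nM NAMPT, 2 nM probe and 1 nM Tb-anti-His antibody in the presence of 200 µM PRPP and 2.5 mM ATP, 2% DMSO (all final). Equilibrated 16 hours before reading to permit possible enzymatic modification of compounds.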

Test [2] concerns the target T1, NAMPT. Put plainly: Time-Resolved Fluorescence Resonance Energy Transfer (TR-FRET) Binding Assay of NAMPT. The note with it: 6.8 nM NAMPT, 200 nM probe, equilibrated 3 hours, no substrates. The method in brief:
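Compound was mixed with enzyme, probe and antibody and equilibrated 3 h at room temperature. TR-FRET read at Ex 337 nm, Em 520/495 nm. Ratios were normalized to controls and fitted to a four-parameter logistic equation for IC50.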

The subject of test [3] is PC3 cells. Put plainly: NAMPT Cell Proliferation Assay (Cell Titer Glo). In kind it is cell-based. The note with it: Homo sapiens, PC-3, 120 h, incubated 5 days, cell viability. Put shortly:
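PC3 cells (500/well, RPMI with 10% heat-inactivated FBS) were exposed to 10-fold compound dilutions from […] for 5 days at 37 °C, 5% CO2. Viability was read with Cell Titer Glo; IC50 from sigmoidal fit of percent inhibition.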
A general note: ATP-based viability assays read luminescence as a measure of living cells.

T1 sequence (P43490 whole entry): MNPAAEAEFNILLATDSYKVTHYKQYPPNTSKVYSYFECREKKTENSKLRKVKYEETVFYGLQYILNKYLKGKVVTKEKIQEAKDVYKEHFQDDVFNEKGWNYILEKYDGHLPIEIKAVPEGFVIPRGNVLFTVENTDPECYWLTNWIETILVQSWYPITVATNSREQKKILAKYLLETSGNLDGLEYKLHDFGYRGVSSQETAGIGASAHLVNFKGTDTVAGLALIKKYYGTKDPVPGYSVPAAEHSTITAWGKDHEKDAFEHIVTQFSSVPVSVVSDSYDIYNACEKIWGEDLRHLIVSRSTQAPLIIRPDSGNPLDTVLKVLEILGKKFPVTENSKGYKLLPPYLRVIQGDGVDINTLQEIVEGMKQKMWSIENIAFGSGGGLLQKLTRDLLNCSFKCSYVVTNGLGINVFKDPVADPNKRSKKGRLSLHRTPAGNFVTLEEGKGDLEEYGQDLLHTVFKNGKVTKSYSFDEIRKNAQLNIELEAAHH

On to `O=C(Nc1ccc(C2=CCN(C(=O)[C@@H]3CCCO3)CC2)cc1)N1CC(c2cccnc2)C1` [Example 11, 3-(pyridine-3-yl)-N-(4-{1-[(2S)-tetrahydrofuran-2-ylcarbonyl]-1,2,3,6-tetrahydropyridin-4-yl}phenyl)azetidine-1-carboxamide], for which the IC50 was determined as 0.32 nM in test [1], 15.8 nM in test [2] and 9.33 nM in test [3].

On to `O=C(Nc1ccc(C2CCN(C(=O)c3ccsc3)CC2)cc1)N1CC(c2cccnc2)C1` [Example 185, 3-(pyridin-3-yl)-N-{4-[1-(thiophen-3-ylcarbonyl)piperidin-4-yl]phenyl}azetidine-1-carboxamide], for which the IC50 was 0.228 nM in test [1], 3.23 nM in test [2] and 9.18 nM in test [3].

As for `CC(C)CC(=O)N1CC(c2ccc(NC(=O)N3CC(c4cccnc4)C3)cc2)C1` [Example 208, N-{4-[1-(3-methylbutanoyl)azetidin-3-yl]phenyl}-3-(pyridin-3-yl)azetidine-1-carboxamide], the IC50 in test [1] turned out to be 0.473 nM; in test [2] it was 48.6 nM; in test [3], 73.7 nM.

For the compound `O=C(CC1CC1)N1CC(Oc2ccc(NC(=O)N3CC(c4cccnc4)C3)cc2)C1` [Example 114, N-(4-{[1-(cyclopropylacetyl)azetidin-3-yl]oxy}phenyl)-3-(pyridin-3-yl)azetidine-1-carboxamide], the results for the half-maximal inhibitory concentration (IC50) in test [1], in test [2] and in test [3] were 0.189 nM, 15.8 nM and 8.11 nM, respectively.

For `O=C(CC1C[C@@H]2CC[C@H]1C2)N1CCC(c2ccc(NC(=O)N3CC(c4cccnc4)C3)cc2)C1` (stereo partly drawn) [Example 260, N-(4-{1-[(1S,4R)-bicyclo[2.2.1]hept-2-ylacetyl]pyrrolidin-3-yl}phenyl)-3-(pyridin-3-yl)azetidine-1-carboxamide], the values for the IC50 in test [1], in test [2] and in test [3] were 0.302 nM, 38.4 nM and 94.9 nM, respectively.

As for `CCC(C)CN1CC(c2ccc(NC(=O)N3CC(c4cccnc4)C3)cc2)C1` (stereo not drawn) [Example 255, N-{4-[1-(2-methylbutyl)azetidin-3-yl]phenyl}-3-(pyridin-3-yl)azetidine-1-carboxamide], the IC50 in test [1] was found to be 0.173 nM; in test [2], 271 nM; in test [3], 734 nM.

In the case of `COCC(=O)N1CC(c2ccc(NC(=O)N3CC(c4cccnc4)C3)cc2)C1` [Example 218, N-{4-[1-(methoxyacetyl)azetidin-3-yl]phenyl}-3-(pyridin-3-yl)azetidine-1-carboxamide], the IC50 in test [1] turned out to be 0.451 nM; in test [2] it was 171 nM; in test [3], 188 nM.

Regarding `O=C(CC1CC1)N1CCC(Oc2ccc(NC(=O)N3CC(c4cccnc4)C3)cc2)CC1` [Example 40, N-(4-{[1-(cyclopropylacetyl)piperidin-4-yl]oxy}phenyl)-3-(pyridin-3-yl)azetidine-1-carboxamide], the IC50 stood at 0.419 nM in test [1], 50.5 nM in test [2] and 26.4 nM in test [3].

For `O=C(CN1CCCC1)N1CC(Oc2ccc(NC(=O)N3CC(c4cccnc4)C3)cc2)C1` [Example 155, 3-(pyridin-3-yl)-N-(4-{[1-(pyrrolidin-1-ylacetyl)azetidin-3-yl]oxy}phenyl)azetidine-1-carboxamide], the results for the IC50 in test [1], in test [2] and in test [3] were 0.425 nM, 399 nM and 130 nM, respectively.

For `CC(=O)N1CCC(c2ccc(NC(=O)N3CC(c4cccnc4)C3)cc2)CC1` [Example 183, N-[4-(1-acetylpiperidin-4-yl)phenyl]-3-(pyridin-3-yl)azetidine-1-carboxamide], the IC50 in test [1] worked out at 0.38 nM; in test [2], 22 nM; in test [3], 63.3 nM.

As to `O=C(Nc1ccc(C2CN(C(=O)C3CCOC3)C2)cc1)N1CC(c2cccnc2)C1` (stereo not drawn) [Example 104, 3-(pyridin-3-yl)-N-{4-[1-(tetrahydrofuran-3-ylcarbonyl)azetidin-3-yl]phenyl}azetidine-1-carboxamide], the IC50 turned out to be 0.389 nM in test [1], 188 nM in test [2] and 95.1 nM in test [3].

On to `CC(C)(O)C(=O)N1CC=C(c2ccc(NC(=O)N3CC(c4cccnc4)C3)cc2)CC1` [Example 12, N-{4-[1-(2-hydroxy-2-methylpropanoyl)-1,2,3,6-tetrahydropyridin-4-yl]phenyl}-3-(pyridin-3-yl)azetidine-1-carboxamide], for which the IC50 in test [1] is 0.43 nM; in test [2] it was 32.1 nM; in test [3], 10.1 nM.

Take `O=C(Nc1ccc(C2CCN(C(=O)C3CC3)C2)cc1)N1CC(c2cccnc2)C1` (stereo not drawn) [Example 73, N-{4-[1-(cyclopropylcarbonyl)pyrrolidin-3-yl]phenyl}-3-(pyridin-3-yl)azetidine-1-carboxamide]: the IC50 in test [1] worked out at 0.663 nM; in test [2] it was 156 nM; in test [3] it was 84.5 nM.

Regarding `CC(C)(C)CCN1CC(c2ccc(NC(=O)N3CC(c4cccnc4)C3)cc2)C1` [Example 247, N-{4-[1-(3,3-dimethylbutyl)azetidin-3-yl]phenyl}-3-(pyridin-3-yl)azetidine-1-carboxamide], the IC50 in test [1] is 0.304 nM; in test [2], 871 nM; in test [3], 471 nM.

As to `O=C(Nc1ccc(O[C@@H]2CCN(C(=O)c3ccsc3)C2)cc1)N1CC(c2cccnc2)C1` [Example 308, 3-(pyridin-3-yl)-N-(4-{[(3R)-1-(thiophen-3-ylcarbonyl)pyrrolidin-3-yl]oxy}phenyl)azetidine-1-carboxamide], the half-inhibitory concentration (IC50) is 0.293 nM in test [1], 24.2 nM in test [2] and 9.61 nM in test [3].

Consider `CCOCC(=O)N1CC[C@@H](Oc2ccc(NC(=O)N3CC(c4cccnc4)C3)cc2)C1` [Example 328, N-(4-{[(3R)-1-(ethoxyacetyl)pyrrolidin-3-yl]oxy}phenyl)-3-(pyridin-3-yl)azetidine-1-carboxamide], for which the IC50 was determined as 0.344 nM in test [1], 159 nM in test [2] and 52.7 nM in test [3].

For `COCCOCC(=O)N1CCC(c2ccc(NC(=O)N3CC(c4cccnc4)C3)cc2)CC1` [Example 176, N-(4-{1-[(2-methoxyethoxy)acetyl]piperidin-4-yl}phenyl)-3-(pyridin-3-yl)azetidine-1-carboxamide], the IC50 in test [1] came out at 0.35 nM; in test [2] it was 65.5 nM; in test [3] it was 88.9 nM.

Take `COCC(=O)N1CC(Oc2ccc(NC(=O)N3CC(c4cccnc4)C3)cc2)C1` [Example 120, N-(4-{[1-(methoxyacetyl)azetidin-3-yl]oxy}phenyl)-3-(pyridin-3-yl)azetidine-1-carboxamide]: the IC50 in test [1] was 0.689 nM; in test [2], 145 nM; in test [3], 78 nM.

With `CC(C)(C)C(=O)N1CC(c2ccc(NC(=O)N3CC(c4cccnc4)C3)cc2)C1` [Example 206, N-{4-[1-(2,2-dimethylpropanoyl)azetidin-3-yl]phenyl}-3-(pyridin-3-yl)azetidine-1-carboxamide], the concentration for half-maximal inhibition (IC50) in test [1] stood at 0.26 nM; in test [2], 49.1 nM; in test [3], 63.4 nM.

As to `CCOCCC(=O)N1CCC(c2ccc(NC(=O)N3CC(c4cccnc4)C3)cc2)C1` (stereo not drawn) [Example 274, N-{4-[1-(3-ethoxypropanoyl)pyrrolidin-3-yl]phenyl}-3-(pyridin-3-yl)azetidine-1-carboxamide], the IC50 was 0.264 nM in test [1], 82.2 nM in test [2] and 68.5 nM in test [3].

As to `CC1(C(=O)N2CC(Oc3ccc(NC(=O)N4CC(c5cccnc5)C4)cc3)C2)CC1` [Example 135, N-[4-({1-[(1-methylcyclopropyl)carbonyl]azetidin-3-yl}oxy)phenyl]-3-(pyridin-3-yl)azetidine-1-carboxamide], the figures for the IC50 in test [1], in test [2] and in test [3] were 0.376 nM, 28.1 nM and 8.69 nM, respectively.

With `O=C(Nc1ccc(OC2CN(C(=O)c3cccs3)C2)cc1)N1CC(c2cccnc2)C1` [Example 141, 3-(pyridin-3-yl)-N-(4-{[1-(thiophen-2-ylcarbonyl)azetidin-3-yl]oxy}phenyl)azetidine-1-carboxamide], the IC50 in test [1] turned out to be 0.249 nM; in test [2], 17.6 nM; in test [3] it was 8.33 nM.

For the compound `O=C(Nc1ccc(O[C@@H]2CCN(C(=O)c3nccs3)C2)cc1)N1CC(c2cccnc2)C1` [Example 307, 3-(pyridin-3-yl)-N-(4-{[(3R)-1-(1,3-thiazol-2-ylcarbonyl)pyrrolidin-3-yl]oxy}phenyl)azetidine-1-carboxamide], the IC50 in test [1] came out at 0.197 nM; in test [2] it was 24.3 nM; in test [3] it was 9.87 nM.

Consider `O=C(Nc1ccc(OC2CN(C(=O)c3ccsc3)C2)cc1)N1CC(c2cccnc2)C1` [Example 146, 3-(pyridin-3-yl)-N-(4-{[1-(thiophen-3-ylcarbonyl)azetidin-3-yl]oxy}phenyl)azetidine-1-carboxamide], for which the IC50 amounted to 0.27 nM in test [1], 15.1 nM in test [2] and 9.07 nM in test [3].

Take `CC(C)(C)CC(=O)N1CCC(c2ccc(NC(=O)N3CC(c4cccnc4)C3)cc2)CC1` [Example 170, N-{4-[1-(3,3-dimethylbutanoyl)piperidin-4-yl]phenyl}-3-(pyridin-3-yl)azetidine-1-carboxamide]: the IC50 was determined as 0.364 nM in test [1], 7.07 nM in test [2] and 14.8 nM in test [3].

For `CC(C)CC(=O)N1CCC(c2ccc(NC(=O)N3CC(c4cccnc4)C3)cc2)C1` (stereo not drawn) [Example 294, N-{4-[1-(3-methylbutanoyl)pyrrolidin-3-yl]phenyl}-3-(pyridin-3-yl)azetidine-1-carboxamide], the figures for the IC50 in test [1], in test [2] and in test [3] were 0.2 nM, 44.3 nM and 60.9 nM, respectively.

Usually IC50 stands for the concentration that inhibits the measured activity by half. Low readings indicate greater potency in that assay, high ones weaker potency in that assay.

The record behind these values is patent publication US9296723B2, “NAMPT inhibitors” (AbbVie Inc., priority 2012, dated 2016).
